Measured values taken from PubChem BioAssay (NCI).
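GI50 = concentration required for 50% inhibition of growth. At the TGI there is no net growth.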

Legend:
Assay in all cases: inhibition of tumour cell growth, NCI panel, 384-well format
786-0 renal = tested on: 786-0 renal
A549 NSCLC = tested on: A549 NSCLC
ACHN renal = tested on: ACHN renal
CCRF-CEM leukemia = tested on: CCRF-CEM leukemia
COLO 205 colon = tested on: COLO 205 colon
DU-145 prostate = tested on: DU-145 prostate
EKVX NSCLC = tested on: EKVX NSCLC
HCC-2998 colon = tested on: HCC-2998 colon
HL-60(TB) leukemia = tested on: HL-60(TB) leukemia
HOP-62 NSCLC = tested on: HOP-62 NSCLC
HOP-92 NSCLC = tested on: HOP-92 NSCLC
HS 578T breast = tested on: HS 578T breast
HT29 colon = tested on: HT29 colon
IGROV1 ovarian = tested on: IGROV1 ovarian
K-562 leukemia = tested on: K-562 leukemia
KM12 colon = tested on: KM12 colon
M14 melanoma = tested on: M14 melanoma
MALME-3M melanoma = tested on: MALME-3M melanoma
MCF7 breast = tested on: MCF7 breast
MDA-MB-231 breast = tested on: MDA-MB-231 breast
MDA-MB-435 melanoma = tested on: MDA-MB-435 melanoma
MOLT-4 leukemia = tested on: MOLT-4 leukemia
NCI-H226 lung = tested on: NCI-H226 lung
NCI-H23 lung = tested on: NCI-H23 lung
NCI-H460 NSCLC = tested on: NCI-H460 NSCLC
NCI-H522 lung = tested on: NCI-H522 lung
NCI/ADR-RES ovarian = tested on: NCI/ADR-RES ovarian
OVCAR-3 ovarian = tested on: OVCAR-3 ovarian
OVCAR-4 ovarian = tested on: OVCAR-4 ovarian
OVCAR-5 ovarian = tested on: OVCAR-5 ovarian
OVCAR-8 ovarian = tested on: OVCAR-8 ovarian
RPMI-8226 leukemia = tested on: RPMI-8226 leukemia
SF-268 CNS = tested on: SF-268 CNS
SF-295 CNS = tested on: SF-295 CNS
SF-539 CNS = tested on: SF-539 CNS
SK-MEL-2 melanoma = tested on: SK-MEL-2 melanoma
SK-MEL-28 melanoma = tested on: SK-MEL-28 melanoma
SK-OV-3 ovarian = tested on: SK-OV-3 ovarian
SNB-75 CNS = tested on: SNB-75 CNS
SR leukemia = tested on: SR leukemia
SW-620 colon = tested on: SW-620 colon
T-47D breast = tested on: T-47D breast
TK-10 renal = tested on: TK-10 renal
U251 glioblastoma = tested on: U251 glioblastoma
UACC-257 melanoma = tested on: UACC-257 melanoma
UACC-62 melanoma = tested on: UACC-62 melanoma
UO-31 renal = tested on: UO-31 renal

O=C(Nc1cccc(C(F)(F)F)c1)Nc1cc(S(=O)(=O)NC2CC2)ccc1-c1ccsc1
GI50 ([…]-0 renal): 4.09 µM
TGI (786-0 renal): 14.3 µM
GI50 (A549 NSCLC): 4.02 µM
TGI (A549 NSCLC): 13.7 µM
GI50 (ACHN renal): 3.25 µM
TGI (ACHN renal): 11.9 µM
GI50 (CCRF-CEM leukemia): 2.4 µM
TGI (CCRF-CEM leukemia): 5.85 µM
GI50 (COLO 205 colon): 5.12 µM
TGI (COLO 205 colon): 15.7 µM
GI50 (DU-145 prostate): 6.35 µM
TGI (DU-145 prostate): 16.4 µM
GI50 (EKVX NSCLC): 4.79 µM
TGI (EKVX NSCLC): 15.5 µM
GI50 (HCC-2998 colon): 5.7 µM
TGI (HCC-2998 colon): 16.2 µM
GI50 (HL-60(TB) leukemia): 1.93 µM
TGI (HL-60(TB) leukemia): 3.52 µM
GI50 (HOP-62 NSCLC): 3.98 µM
TGI (HOP-62 NSCLC): 13.4 µM
GI50 (HOP-92 NSCLC): 3.36 µM
TGI (HOP-92 NSCLC): 10.5 µM
GI50 (HS 578T breast): 2.87 µM
TGI (HS 578T breast): 7.27 µM
GI50 (HT29 colon): 4.35 µM
TGI (HT29 colon): 14.9 µM
GI50 (IGROV1 ovarian): 8.86 µM
TGI (IGROV1 ovarian): 21.7 µM
GI50 (K-562 leukemia): 3.45 µM
TGI (K-562 leukemia): 11.5 µM
GI50 (KM12 colon): 4.02 µM
TGI (KM12 colon): 12.7 µM
GI50 (M14 melanoma): 5.88 µM
TGI (M14 melanoma): 16.7 µM
GI50 (MALME-3M melanoma): 6.91 µM
TGI (MALME-3M melanoma): 18.9 µM
GI50 (MCF7 breast): 3.68 µM
TGI (MCF7 breast): 12.4 µM
GI50 (MDA-MB-231 breast): 10.6 µM
TGI (MDA-MB-231 breast): 23 µM
GI50 (MDA-MB-435 melanoma): 6.53 µM
TGI (MDA-MB-435 melanoma): 18.9 µM
GI50 (MOLT-4 leukemia): 1.78 µM
TGI (MOLT-4 leukemia): 3.35 µM
GI50 (NCI-H226 lung): 4.75 µM
TGI (NCI-H226 lung): 14.7 µM
GI50 (NCI-H23 lung): 2.83 µM
TGI (NCI-H23 lung): 8.74 µM
GI50 (NCI-H460 NSCLC): 2.4 µM
TGI (NCI-H460 NSCLC): 5.08 µM
GI50 (NCI-H522 lung): 2.69 µM
TGI (NCI-H522 lung): 8.11 µM
GI50 (NCI/ADR-RES ovarian): 6.69 µM
TGI (NCI/ADR-RES ovarian): 18.3 µM
GI50 (OVCAR-3 ovarian): 2.42 µM
TGI (OVCAR-3 ovarian): 5.79 µM
GI50 (OVCAR-4 ovarian): 5.19 µM
TGI (OVCAR-4 ovarian): 17 µM
GI50 (OVCAR-5 ovarian): 13.8 µM
TGI (OVCAR-5 ovarian): 26.8 µM
GI50 (OVCAR-8 ovarian): 3.73 µM
TGI (OVCAR-8 ovarian): 13.4 µM
GI50 (RPMI-8226 leukemia): 1.88 µM
TGI (RPMI-8226 leukemia): 3.36 µM
GI50 (SF-268 CNS): 4.84 µM
TGI (SF-268 CNS): 14.4 µM
GI50 (SF-295 CNS): 2.96 µM
TGI (SF-295 CNS): 9.42 µM
GI50 (SF-539 CNS): 5.91 µM
TGI (SF-539 CNS): 15 µM
GI50 (SK-MEL-2 melanoma): 2.72 µM
TGI (SK-MEL-2 melanoma): 6.07 µM
GI50 (SK-MEL-28 melanoma): 10.9 µM
TGI (SK-MEL-28 melanoma): 22.9 µM
GI50 (SK-OV-3 ovarian): 7.67 µM
TGI (SK-OV-3 ovarian): 19.8 µM
GI50 (SNB-75 CNS): 4.25 µM
TGI (SNB-75 CNS): 15.6 µM
GI50 (SR leukemia): 0.863 µM
TGI (SR leukemia): 2.19 µM
GI50 (SW-620 colon): 3.87 µM
TGI (SW-620 colon): 13.9 µM
GI50 (T-47D breast): 2.62 µM
TGI (T-47D breast): 8.35 µM
GI50 (TK-10 renal): 3.96 µM
TGI (TK-10 renal): 14.1 µM
GI50 (U251 glioblastoma): 3.43 µM
TGI (U251 glioblastoma): 11.3 µM
GI50 (UACC-257 melanoma): 2.89 µM
TGI (UACC-257 melanoma): 8.51 µM
GI50 (UACC-62 melanoma): 7.26 µM
TGI (UACC-62 melanoma): 19.5 µM
GI50 (UO-31 renal): 4.17 µM
TGI (UO-31 renal): 14.9 µM

COc1cc2nccc(Oc3ccc(NC(=O)C4(C(=O)Nc5ccc(F)cc5)CC4)cc3)c2cc1OC
GI50 ([…]-0 renal): 4.47 µM
TGI (786-0 renal): 19 µM
GI50 (A549 NSCLC): 2.46 µM
TGI (A549 NSCLC): 6.13 µM
GI50 (ACHN renal): 3.54 µM
TGI (ACHN renal): 16 µM
GI50 (CCRF-CEM leukemia): 1.96 µM
TGI (CCRF-CEM leukemia): 3.52 µM
GI50 (COLO 205 colon): 2.14 µM
TGI (COLO 205 colon): 4.97 µM
GI50 (DU-145 prostate): 4.85 µM
TGI (DU-145 prostate): 31.5 µM
GI50 (EKVX NSCLC): 4.64 µM
TGI (EKVX NSCLC): 15.7 µM
GI50 (HCC-2998 colon): 5.73 µM
TGI (HCC-2998 colon): 14 µM
GI50 (HL-60(TB) leukemia): 2.71 µM
TGI (HL-60(TB) leukemia): 5.24 µM
GI50 (HOP-62 NSCLC): 5.16 µM
TGI (HOP-62 NSCLC): 24.2 µM
GI50 (HOP-92 NSCLC): 1.29 µM
TGI (HOP-92 NSCLC): 4.93 µM
GI50 (HS 578T breast): 1.96 µM
TGI (HS 578T breast): 6.4 µM
GI50 (HT29 colon): 3.17 µM
TGI (HT29 colon): 12.3 µM
GI50 (IGROV1 ovarian): 1.64 µM
TGI (IGROV1 ovarian): 3.8 µM
GI50 (K-562 leukemia): 0.295 µM
TGI (K-562 leukemia): 1.07 µM
GI50 (KM12 colon): 0.0614 µM
TGI (KM12 colon): 14.3 µM
GI50 (M14 melanoma): 2.67 µM
TGI (M14 melanoma): 7.03 µM
GI50 (MALME-3M melanoma): 2 µM
TGI (MALME-3M melanoma): 5.44 µM
GI50 (MCF7 breast): 3.55 µM
TGI (MCF7 breast): 11.1 µM
GI50 (MDA-MB-231 breast): 2.48 µM
TGI (MDA-MB-231 breast): 6.76 µM
GI50 (MDA-MB-435 melanoma): 3.94 µM
TGI (MDA-MB-435 melanoma): 12 µM
GI50 (MOLT-4 leukemia): 1.55 µM
TGI (MOLT-4 leukemia): 3.62 µM
GI50 (NCI-H226 lung): 1.41 µM
TGI (NCI-H226 lung): 4.74 µM
GI50 (NCI-H23 lung): 1.34 µM
TGI (NCI-H23 lung): 6.54 µM
GI50 (NCI-H460 NSCLC): 3.14 µM
TGI (NCI-H460 NSCLC): 9.27 µM
GI50 (NCI-H522 lung): 2.79 µM
TGI (NCI-H522 lung): 7.77 µM
GI50 (NCI/ADR-RES ovarian): 2.52 µM
TGI (NCI/ADR-RES ovarian): 9.33 µM
GI50 (OVCAR-3 ovarian): 3.36 µM
TGI (OVCAR-3 ovarian): 10.2 µM
GI50 (OVCAR-4 ovarian): 4.01 µM
TGI (OVCAR-4 ovarian): 13.1 µM
GI50 (OVCAR-5 ovarian): 2.96 µM
TGI (OVCAR-5 ovarian): 10.7 µM
GI50 (OVCAR-8 ovarian): 3.88 µM
TGI (OVCAR-8 ovarian): 14.6 µM
GI50 (RPMI-8226 leukemia): 3.09 µM
TGI (RPMI-8226 leukemia): 7.73 µM
GI50 (SF-268 CNS): 3.68 µM
TGI (SF-268 CNS): 12.4 µM
GI50 (SF-295 CNS): 1.08 µM
TGI (SF-295 CNS): 6.02 µM
GI50 (SF-539 CNS): 1.32 µM
TGI (SF-539 CNS): 4.74 µM
GI50 (SK-MEL-2 melanoma): 3.07 µM
TGI (SK-MEL-2 melanoma): 7.42 µM
GI50 (SK-MEL-28 melanoma): 3.01 µM
TGI (SK-MEL-28 melanoma): 11.3 µM
GI50 (SK-OV-3 ovarian): 4.97 µM
TGI (SK-OV-3 ovarian): 15.8 µM
GI50 (SNB-75 CNS): 1.29 µM
TGI (SNB-75 CNS): 4.35 µM
GI50 (SR leukemia): 2.95 µM
TGI (SR leukemia): 4.49 µM
GI50 (SW-620 colon): 2.13 µM
TGI (SW-620 colon): 5.57 µM
GI50 (T-47D breast): 2.78 µM
TGI (T-47D breast): 10 µM
GI50 (TK-10 renal): 7.66 µM
TGI (TK-10 renal): 33.7 µM
GI50 (U251 glioblastoma): 5.32 µM
TGI (U251 glioblastoma): 17.9 µM
GI50 (UACC-257 melanoma): 4.62 µM
TGI (UACC-257 melanoma): 12.6 µM
GI50 (UACC-62 melanoma): 2.23 µM
TGI (UACC-62 melanoma): 6.52 µM
GI50 (UO-31 renal): 3.16 µM
TGI (UO-31 renal): 9.08 µM
